Source: patent publication US20260295067A1, “PANRAS INHIBITOR ANTIBODY-DRUG CONJUGATES AND METHODS OF USE THEREOF” (NOVARTIS AG, priority 2023, published 2026)

Columns and labels:
H727 = assay: CellTiter-Glo proliferation/survival assay, H727; format: cell-based; conditions: Homo sapiens, NCI-H727, 120 h, 5 days, 0.005-100 nM
Experimental: (§1) The panRAS antibody drug conjugates were tested against the following cancer cell lines: • LU65: JCRB No. JCRB0079 cultured in RPMI-1640+10% FBS • HPAC: ATCC No. CRL-2119 cultured in DMEM:HAM's F12+5% FBS • NCI-H727: ATCC No. CRL-5815 cultured in RPMI-1640+10% FBS • SW1271: ATCC No. CRL-2177 cultured in DMEM+10% FBS
(§2) The ability of the panRAS antibody drug conjugates to inhibit cell proliferation and survival was assessed using the Promega CellTiter-Glo® proliferation assay.
(§3) Cell lines were cultured in media that is optimal for their growth at 5% CO2, 37° C. in a tissue culture incubator. Prior to seeding for the proliferation assay, the cells were split at least 2 days before the assay to ensure optimal growth density. On the day of seeding, cell viability and cell density were determined using a cell counter (Vi-Cell XR Cell Viability Analyzer, Beckman Coulter). […] Plates were incubated at 5% CO2, 37° C. for 5 days in a tissue culture incubator, after which cell viability was assessed through the addition of 25 μL of CellTiter Glo® (Promega, cat #G7573), a reagent which lyses cells and measures total adenosine triphosphate (ATP) content. Plates were incubated at room temperature for 10 minutes to stabilize luminescent signals prior to reading using a luminescence reader (EnVision Multilabel Plate Reader, PerkinElmer). […]

HPAC = assay: CellTiter-Glo proliferation/survival assay, HPAC; format: cell-based; conditions: Homo sapiens, 120 h, 5 days, 0.005-100 nM
Experimental: as §1, §2, §3

SW1271 = assay: CellTiter-Glo proliferation/survival assay, SW1271; format: cell-based; conditions: 120 h, 5 days, 0.005-100 nM
Experimental: as §1, §2, §3

CDK4 = conditions: Finn et al. (2009); cited from earlier work
CDK6 = conditions: Finn et al. (2009); cited from earlier work

Structure (SMILES)	IC50 (H727)	IC50 (HPAC)	IC50 (SW1271)	IC50 (CDK4)	IC50 (CDK6)
C=CC(=O)N1CCN(c2nc(=O)n(-c3c(C)ccnc3C(C)C)c3nc(-c4c(O)cccc4F)c(F)cc23)[C@@H](C)C1 [Sotorasib]	> 100 nM	> 100 nM	> 100 nM		
CC(=O)c1c(C)c2cnc(Nc3ccc(N4CCNCC4)cn3)nc2n(C2CCCC2)c1=O [Palbociclib, 6-Acetyl-8-cyclopentyl-5-methyl-2-{[5-(1-piperazinyl)-2-pyridinyl]amino}pyrido[2,3-d]pyrimidin-7(8H)-one]				[…]	16 nM
